Test results as given in patent publication US12685733B2, “Indole molecules and use thereof in the inhibition of DNA polymerases” (BioVentures, LLC, priority 2019, dated 2026).

Columns and labels:
hpol ι = biological target: T1, hpol ι (Homo sapiens, UniProt Q9UNA4); experiment: Gel-based primer extension assay; type: biochemical; conditions: 10 μM; 10 nM hpol ι
T1 construct: hpol ι (residues 1-446); made in house
T1 sequence (Q9UNA4 1-446): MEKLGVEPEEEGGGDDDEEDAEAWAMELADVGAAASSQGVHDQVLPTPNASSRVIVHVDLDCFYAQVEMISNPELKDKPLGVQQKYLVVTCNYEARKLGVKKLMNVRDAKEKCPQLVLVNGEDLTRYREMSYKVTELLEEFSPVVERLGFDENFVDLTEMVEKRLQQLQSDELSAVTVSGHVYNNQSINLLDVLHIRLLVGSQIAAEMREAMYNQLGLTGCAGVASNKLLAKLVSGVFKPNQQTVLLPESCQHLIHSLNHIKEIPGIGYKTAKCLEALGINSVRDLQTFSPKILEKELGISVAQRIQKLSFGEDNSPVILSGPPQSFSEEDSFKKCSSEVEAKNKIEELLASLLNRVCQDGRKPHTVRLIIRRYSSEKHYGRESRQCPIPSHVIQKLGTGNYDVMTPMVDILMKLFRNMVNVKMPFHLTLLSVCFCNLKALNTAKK

Dpo1 = biological target: T2, Dpo1 (Saccharolobus solfataricus, UniProt P26811); experiment: Fluorescence-based polymerase assay, other pol families; type: biochemical, Sulfolobus solfataricus; conditions: 10 μM; 25 nM Dpo1 (B-family)
T2 construct: made in house
T2 sequence (P26811 1-882): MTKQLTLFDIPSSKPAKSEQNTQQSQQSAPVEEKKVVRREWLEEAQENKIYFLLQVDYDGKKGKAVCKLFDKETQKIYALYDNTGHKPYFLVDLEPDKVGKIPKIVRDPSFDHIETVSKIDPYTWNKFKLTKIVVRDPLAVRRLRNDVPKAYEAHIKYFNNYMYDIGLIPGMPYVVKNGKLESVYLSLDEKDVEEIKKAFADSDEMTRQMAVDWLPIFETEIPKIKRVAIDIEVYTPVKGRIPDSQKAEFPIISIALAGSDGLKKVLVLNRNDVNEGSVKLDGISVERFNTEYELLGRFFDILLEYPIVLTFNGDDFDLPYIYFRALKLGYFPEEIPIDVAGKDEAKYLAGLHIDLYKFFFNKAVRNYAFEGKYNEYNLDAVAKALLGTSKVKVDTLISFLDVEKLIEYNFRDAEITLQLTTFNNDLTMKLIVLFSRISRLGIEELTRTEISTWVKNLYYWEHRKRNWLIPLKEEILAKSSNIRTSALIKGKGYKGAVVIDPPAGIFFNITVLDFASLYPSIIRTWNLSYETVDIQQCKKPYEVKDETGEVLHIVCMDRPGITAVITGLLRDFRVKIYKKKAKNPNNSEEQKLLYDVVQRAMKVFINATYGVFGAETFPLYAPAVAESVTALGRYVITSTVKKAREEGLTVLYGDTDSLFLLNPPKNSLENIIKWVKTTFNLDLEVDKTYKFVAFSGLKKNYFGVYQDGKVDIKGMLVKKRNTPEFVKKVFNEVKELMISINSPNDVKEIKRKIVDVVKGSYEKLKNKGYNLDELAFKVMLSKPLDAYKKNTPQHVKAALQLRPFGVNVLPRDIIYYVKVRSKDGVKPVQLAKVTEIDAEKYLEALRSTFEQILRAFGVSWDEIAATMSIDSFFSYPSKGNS

hpol η = biological target: T3, hpol η (Homo sapiens, UniProt Q9Y253); experiment: Gel-based primer extension assay; type: biochemical; conditions: 10 μM; 2 nM hpol η
T3 construct: hpol η (residues 1-437); made in house
T3 sequence (Q9Y253 1-437): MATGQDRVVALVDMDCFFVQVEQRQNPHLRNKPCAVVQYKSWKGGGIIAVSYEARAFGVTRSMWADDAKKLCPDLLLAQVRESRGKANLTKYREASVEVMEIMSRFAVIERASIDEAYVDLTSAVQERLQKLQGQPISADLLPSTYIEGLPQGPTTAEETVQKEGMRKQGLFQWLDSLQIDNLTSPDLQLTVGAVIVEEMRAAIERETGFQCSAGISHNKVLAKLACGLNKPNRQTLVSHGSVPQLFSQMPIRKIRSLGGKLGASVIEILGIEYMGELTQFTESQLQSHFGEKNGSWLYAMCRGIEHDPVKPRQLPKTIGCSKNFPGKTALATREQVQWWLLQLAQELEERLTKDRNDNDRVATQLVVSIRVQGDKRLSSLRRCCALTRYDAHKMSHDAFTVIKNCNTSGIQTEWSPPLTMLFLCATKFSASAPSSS

T98G spheroids = experiment: Spheroid growth rate assay; type: cell-based; conditions: 50 nM or 500 nM, with or without TMZ, 12 days
Experimental: Cell, spheroid and organoid culture. Grade IV glioma cells (T98G) were obtained from the American Type Culture Collection (ATCC). MCF7 cells were a kind gift from Dr. Timothy Chambers (UAMS). The POLKKO T98G cell lines were generated using CRISPR-Cas9 and validated by immunoblotting (data not shown). For normal culture, these cells were grown in minimum essential media (MEM) containing 10% fetal bovine serum (FBS), 1% (v/v) antibiotic/[…] and incubated at 37° C. in 5% CO2.
For spheroid culture, 24 h prior to plating cells, dishes were coated in 1× poly-HEMA (0.6 g poly-2-hydroxyethyl methacrylate into 50 mL 95% EtOH) under sterile conditions and allowed to dry overnight. Coated dishes were hydrated in 1×PBS for 20 min prior to plating. Spheroids were cultured in NeuroCult NS-A basal medium containing NeuroCult NS-A proliferation supplement, 20 ng/mL human recombinant epidermal growth factor (EGF), 10 ng/mL human recombinant basic fibroblast growth factor (bFGF), and 0.0002% heparin (referred to as NS-A complete medium). […]
Spheroid growth rate assay. […] Spheroids with a diameter of 50 µm or larger were counted as true spheroids and an average size was determined for each well. Changes in average size for each well over the growth time was recorded and used to generate the growth rate. […]

NT2 cells = experiment: Clonogenic survival assay; type: cell-based, human; conditions: IAG-10 and TMZ in combination

SMILES: Cl.[H]/N=C(\N)NN=Cc1cn(C(=O)c2cccc3ccccc23)c2ccc(Cl)cc12 [IAG-10, (E)-2-((1-(1-naphthoyl)-5-chloro-1H-indol-3-y1)methylene)hydrazine-1-carboximidamide hydrochloride]
- polymerase activity relative to DMSO control (hpol ι): only hpol κ was inhibited
- polymerase activity relative to DMSO control (Dpo1): only hpol κ activity was inhibited
- polymerase activity relative to DMSO control (hpol η): only hpol κ was inhibited
- glioma spheroid growth rate (T98G spheroids): inhibits glioma spheroid growth rate on its own and also enhances the effects of TMZ
- colony formation ability, combination (NT2 cells): did not exhibit changes in colony formation ability
